Reference: US12378204B2, “Triazole compounds and preparation method therefor and use thereof” (WUHAN LL SCIENCE AND TECHNOLOGY DEVELOPMENT CO., LTD., priority 2019, dated 2025)

Legend:
Type in all cases: cell-based
[1] = biological target: T1, hLPAR1 (human lysophosphatidic acid receptor 1) (Homo sapiens, UniProt Q92633); experiment: FLIPR intracellular calcium assay, hLPAR1 expressed in CHO-K1 cells; details: antagonism of 1 μM LPA-induced calcium increase, CHO-K1 cells expressing hLPAR1; read-out: LPAR1 IC50
T1 construct: expressed in transfected cells
Protocol: The antagonist property of the compounds disclosed herein was determined using the FLIPR (fluorescence imaging plate reader) method, wherein the compounds are inhibitors for the intracellular calcium increase induced by activation of hLPAR1 (human lysophosphatidic acid receptor 1, accession No. NM_001401.4) expressed in CHO-K1 cells (Chinese hamster ovary cells K1, ATCC).
CHO-K1 cells stably expressing hLPAR1 were cultured in F-12 medium containing 10% FBS (fetal bovine serum, Gibco, 10099-141), 1% penicillin-streptomycin (Gibco, 15140-122) and 0.4 mg/mL hygromycin B (Gibco, 10687010) in a cell incubator (37° C., […]). During 18-24 h prior to the FLIPR experiment, cells at 250,000 cells/mL were seeded into a 96-well plate (25,000 cells/well) and incubated overnight in the cell incubator. On the day of the experiment, the medium was discarded and the cells were washed in a FLIPR buffer (0.3 mL of probenecid (Thermo, P36400), 0.6 mL of 1 M HEPES (Invitrogen, 15630080) and 29.1 mL of HBSS (Invitrogen, 14065056) per 30 mL of buffer). Each well was added with 75 μL of 1 mM Fluo-4 AM fluorescent dye (Thermo, F14202) and then the cells were subjected to dye-loading incubation at 37° C. for 1.0 h. The 96-well plate was then washed once with buffer, added with a buffer containing a test compound or vehicle at 50 μL per well and then incubated for 30 min at room temperature. The cell plate was then placed in the FLIPR for baseline fluorescence measurements (excitation at 485 nm and emission at 525-535 nm). An agonist (oleoyl-L-α-lysophosphatidic acid sodium salt (Sigma, L7260) at a final concentration of 1 μM) or a vehicle (ultrapure water) was then added at 50 μL/well, fluorescence values were measured for 2 min at 1-second intervals, and finally the output fluorescence counts were analyzed.

[2] = system: A2058 (human melanoma cells); experiment: A2058 cell scratch assay (cell migration inhibition); details: A2058 scratch area 0 h vs 24 h, 10 μM LPA, read-out: Cell migration inhibition rate
Protocol: The activity of the compounds disclosed herein at the cell level in vitro is evaluated by A2058 (human melanoma cells, Beina Bio, BNCC341099) cell scratch assay. The inhibitory activity of the compounds against LPAR1 can be reflected by inhibition of cell scratch healing.
A2058 cells in a T75 cm^2 cell culture flask were digested and gently pipetted into single cells, adjusted to a cell density of 4×10^5 cells/mL, and then seeded into a 24-well plate. After the cell confluence reached 80%, the cell culture plate was taken out and the original medium was discarded. Serum-free medium was then added, and the cells were starved overnight in an incubator (37° C., 5% CO2). The cell culture plate was then taken out, and cell scratches were made along the diameter of the wells using a 200 μL pipette tip. The cell culture plate was then added with 500 μL of serum-free medium and then shaken gently to wash away the residual cells on the scratched surface, and this was repeated twice. The medium was discarded and 500 μL of 1% FBS medium containing the compound was then added, and the mixture was incubated at 37° C. for 30 min. […] Olympus CKX53 was used to observe the scratches, and MShot image analysis system was used to take pictures and measure the scratch area at 0 h. Then the cell culture plate was incubated in the incubator (37° C., 5% CO2). 24 h later, the scratches were observed again with Olympus CKX53, and MShot image analysis system was used to take pictures and measure the scratch area at 24 h. Cell migration inhibition rate was calculated according to the following formula: […]

[3] = In vitro cytotoxicity assay in HepG2 cells, CCK-8 method; details: human, 48 h incubation
Protocol: In vitro cytotoxicity assay for the compounds disclosed herein was performed in HepG2 cells using the CCK-8 method. HepG2 cells (Beina Bio) in the logarithmic growth phase were collected, the concentration of cell suspension was adjusted, and then the cells were plated on a 96-well cell culture plate at 50,000 cells/well. • The cells were then incubated overnight in a cell incubator (5% CO2, 37° C.), and after 80-90% cell confluence was achieved, test compounds or vehicle (DMSO) at various concentration gradients were added after medium change. The resulting mixture was incubated in the cell incubator (5% CO2, 37° C.) for 48 h. After the treatment, the medium in the plate was discarded. The plate was washed twice with PBS, added with CCK-8 working solution (Beyotime) at 100 μL per well, and then incubated at 37° C. for 1.5 h in the dark. Absorbance at OD450nm was measured for each well on a microplate reader, and CC50 value of each compound was analyzed and calculated.

T1 sequence (Q92633 whole entry): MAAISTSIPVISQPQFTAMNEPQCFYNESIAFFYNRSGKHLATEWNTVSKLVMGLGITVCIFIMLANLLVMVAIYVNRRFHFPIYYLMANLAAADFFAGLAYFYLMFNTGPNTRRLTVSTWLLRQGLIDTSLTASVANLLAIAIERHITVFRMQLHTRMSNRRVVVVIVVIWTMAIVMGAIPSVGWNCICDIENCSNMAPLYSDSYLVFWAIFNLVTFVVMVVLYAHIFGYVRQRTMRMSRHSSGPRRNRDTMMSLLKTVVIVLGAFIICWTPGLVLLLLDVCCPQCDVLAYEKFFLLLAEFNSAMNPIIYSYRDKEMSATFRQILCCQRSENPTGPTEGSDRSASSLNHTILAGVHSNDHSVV

SMILES	IC50 [1] [nM]	inhibition [2] [%]	CC50 at 48 h [3] [nM]
Cn1nnc(-c2ccc(O[C@H]3CCC[C@H](C(=O)O)C3)cc2)c1CN1CCN(Cc2ccccc2)C1=O (racemic) [Compound 17, (+/−)-(1S,3S)-3-(4-(5-((3-benzyl-2-carbonylimidazolidin-1-yl)methyl)-1-methyl-1H-1,2,3-triazol-4-yl)phenoxy)cyclohexane-1-carboxylic acid]	50 to 300	0 to 30	> 200000
CN(C(=O)CCc1nnn(C)c1-c1ccc(O[C@H]2CCC[C@H](C(=O)O)C2)c(C(F)(F)F)n1)C1CCCC1 (racemic) [Compound 27-B, (+/−)-(1S,3S)-3-((6-(4-(3-(cyclopentyl(methyl)amino)-3-carbonylpropyl)-1-methyl-1H-1,2,3-triazol-5-yl)-2-(trifluoromethyl)pyridin-3-yl)oxo)cyclohexane-1-carboxylic acid]	300 to 10000	0 to 30	> 200000
Cn1nnc(-c2ccc(O[C@H]3CCC[C@H](C(=O)O)C3)cc2)c1CNS(=O)(=O)c1ccccc1 (racemic) [Compound 18, (+/−)-(1S,3S)-3-(4-(1-methyl-5-(benzenesulfonamidomethyl)-1H-1,2,3-triazol-4-yl)phenoxy)cyclohexane-1-carboxylic acid]	50 to 300	30 to 50	> 200000
CN(Cc1ccccc1)C(=O)OCc1cn(-c2ccc(O[C@H]3CCC[C@H](C(=O)O)C3)cc2)nn1 (racemic) [Compound 6, (+/−)-(1S,3S)-3-(4-(4-(((benzyl(methyl)carbamoyl)oxo)methyl)-1H-1,2,3-triazol-1-yl)phenoxy)cyclohexane-1-carboxylic acid]	50 to 300	30 to 50	> 200000
CN(Cc1ccccc1)C(=O)OCc1c(-c2ccc(N[C@H]3CCC[C@H](C(=O)O)C3)cc2)nnn1C [Compound 13, 3-((4-(5-(((benzyl(methyl)carbamoyl)oxo)methyl)-1-methyl-1H-1,2,3-triazol-4-yl)phenyl)amino)cyc lohexanecarboxylic acid]	50 to 300	0 to 30	> 200000
Cn1nnc(-c2ccc(O[C@H]3CCC[C@H](C(=O)O)C3)cc2)c1-c1cn(Cc2ccccc2)c(=O)o1 [Compound 8]	50 to 300	0 to 30	> 200000
Cn1nnc(-c2ccc(O[C@H]3CCC[C@H](C(=O)O)C3)cc2)c1COC1CCCC1 (racemic) [Compound 21, (+/−)-(1S,3S)-3-(4-(5-((cyclopentyloxy)methyl)-1-methyl-1H-1,2,3-triazol-4-yl)phenoxy)cyclohexane-1-carboxylic acid]	50 to 300	30 to 50	> 200000
CN(Cc1ccccc1)C(=O)OCc1c(-c2ccc(OCCC(=O)O)cc2)nnn1C [Compound 11, 3-(4-(5-(((benzyl(methyl)carbamoyl)oxo)methyl)-1-methyl-1H-1,2,3-triazol-4-yl)phenoxy)propionic acid]	50 to 300	0 to 30	> 200000
